Results taken from EP4050002A1, “ANTI-PROLIFERATIVE AGENTS” (First Health Pharmaceuticals B.V., priority 2021, dated 2022).

Assays:
hERG channels = target: T1, hERG channels (Homo sapiens, UniProt Q12809); experiment: hERG inhibition (whole cell patch clamp, HEK293); format: cell-based; conditions: 300nM to 30µM, HEK293 cells
T1 construct: host or cells: HEK293
Method: HEK293 cells (Eurofins Discover X, Catalogue number CYL3039) stably expressing hERG channels (human ether-a-go-go-related gene potassium channels were plated onto 12 mm coverslips, 12 to 18 h before performing the assay. Cells with coverslips were placed in recording chamber of molecular devices profiled with extracellular solution. Glass capillary with a tip resistance from […] was back filled with intracellular solution. Giga seal was attained using a sequence of positive and negative pressure.
Whole cell configuration was attained using a gentle suction. Cell capacitance and series resistance compensation was done using software controls provided in multi clamp 700B commander. The cells are maintained at a holding potential of -80mV; hERG currents are activated by cell depolarization to +20mV for 2 seconds followed by a 3 second repolarization to -60mV (frequency: 0.05Hz).
Electrical signals were filtered at 2 KHz and digitized at 5 KHz. Series resistance compensation was typically 60% to 70% such that voltage errors were less than 5 mV. […] Data were acquired using Clampex acquisition software. […]
Amplitude of the tail current upon repolarization to -60mV (pA) and inhibition of the hERG tail current with respect to untreated cells (%) are measured. […]

CYP3A4 = target: T2, CYP3A4 (Homo sapiens, UniProt P08684); experiment: Cytochrome P450 inhibition; format: in vitro ADME; conditions: 3A4, Human Liver Microsome
T2 construct: 158 µl of Human Liver Microsome working stock solution; from tissue; host or cells: human liver microsomes
Method: (§1) Ready to use PBS, 9.07-10.00 g, (Sigma Aldrich, catalogue code P3813) was dissolved in […] MilliQ water and pH was adjusted to 7.4.
(§2) Substrate pool was done pooling 14 µl of Phenacitin 10 mM (CYP1A2 substrate, Sigma Aldrich, catalogue number 7740), 14 µl Diclofenac 10 mM (CYP2C9 substrate, Sigma Aldrich, catalogue number D6899), 14 µl Dextromethorphan 10 mM (CYP2D6 substrate, Sigma Aldrich, catalogue number D9684), 20.28 µl Midazolam 2.76 mM (CYP3A4 substrate, Sigma Aldrich, catalogue number UC430) and 14 µl Bupropion HCl 10 mM (CYP2B6 substrate, Sigma Aldrich, catalogue number B102), and diluted to 2800 µl with PBS buffer pH 7.4.
(§3) Inhibitors of the cytochromes tested were the following: Alpha-naphthoflavone (CYP1A2, Sigma Aldrich, catalogue number N5757); Sulfaphenazole (CYP2C9, Sigma Aldrich, catalogue number S0758); Ticlopidine (CYP2B6, Sigma Aldrich, catalogue number T6654); Quinidine (CYP2D6, Sigma Aldrich, catalogue number Q3625); Ketoconazole (CYP3A4, Sigma Aldrich, catalogue number K1003).
(§4) 158 µl of Human Liver Microsome working stock solution in PBS buffer pH7.4 was added to reaction plate (0.253 mg/ml, 158 µl/well).
(§5) Test compounds and inhibitors were prepared in DMSO and diluted with buffer to prepare working solution with the final concentration of 3000, 999, 333, 111, 37 and 12 µM. 2 µl of working solution of the test compounds or inhibitors listed above were added to reaction plate (2 µl/ well). For control, 2 µl of Acetonitrile containing DMSO (without inhibitor) was added to reaction plate. 20 µl of substrate pool was added to all the wells of the reaction plate. The samples were mixed using the vortex and pre-incubated at 37°C for 5 min.
(§6) The NADPH solution 10 mM in PBS buffer pH 7.4 was pre-warmed at 37°C for 5 min. 20 µl of pre-warmed NADPH solution was added to the reaction plate and then incubated at 37°C for 10 min.
(§7) The reaction was terminated by adding cold ACN (200 µl/well) to the reaction mixture and centrifuged at 4,000 rpm for 20 minutes.
(§8) After centrifugation, 200 µl of supernatant was submitted for LC-MS/MS analysis. Mobile phases include 0.1% formic acid in water and methanol:acetonitrile, 50% (v/v).
(§9) Column is Phenomenex kinetic C18, 50 x 4.6 mm, […]. IC50 values were calculated using Graphpad Prism (version 4.03).

CYP2B6 = target: T3, CYP2B6 (Homo sapiens, UniProt P20813); experiment: Cytochrome P450 inhibition; format: in vitro ADME; conditions: 2B6, Human Liver Microsome
T3 construct: 158 µl of Human Liver Microsome working stock solution; from tissue; host or cells: human liver microsomes
Method: as §1, §2, §3, §4, §5, §6, §7, §8, §9

CYP1A2 = target: T4, CYP1A2 (Homo sapiens, UniProt P05177); experiment: Cytochrome P450 inhibition; format: in vitro ADME; conditions: 1A2, Human Liver Microsome
T4 construct: 158 µl of Human Liver Microsome working stock solution; from tissue; host or cells: human liver microsomes
Method: as §1, §2, §3, §4, §5, §6, §7, §8, §9

CYP2D6 = target: T5, CYP2D6 (Homo sapiens, UniProt P10635); experiment: Cytochrome P450 inhibition; format: in vitro ADME; conditions: 2D6, Human Liver Microsome
T5 construct: 158 µl of Human Liver Microsome working stock solution; from tissue; host or cells: human liver microsomes
Method: as §1, §2, §3, §4, §5, §6, §7, §8, §9

CYP2C9 = target: T6, CYP2C9 (Homo sapiens, UniProt P11712); experiment: Cytochrome P450 inhibition; format: in vitro ADME; conditions: 2C9, Human Liver Microsome
T6 construct: 158 µl of Human Liver Microsome working stock solution; from tissue; host or cells: human liver microsomes
Method: as §1, §2, §3, §4, §5, §6, §7, §8, §9

[1] = Systemic and organ toxicity; format: in vivo, mice
Method: […] For blood withdrawal, mice were anesthetized using gaseous anesthesia and 0.2 to 0.3 ml of blood samples were collected in Li-Heparin containing tubes at the time points above indicated, stored on ice, centrifuged within 15 minutes to separate plasma at 1540 ref (5000 rpm) at 4°C for 10 minutes; plasma was separated and transferred to new tubes.
At study closure, animals were sacrificed and tumor and tissues removed for further studies of distribution and morphology. Mice from the efficacy study were anesthetized using gaseous anesthesia and blood samples collected in Li-Heparin containing tubes by intracardiac puncture, stored on ice, centrifuged within 15 minutes to separate plasma at 1540 ref (5000 rpm), at 4°C for 10 minutes; plasma was separated and transferred to new tubes. After blood collection, tissues for bio-analyses were separated, washed in PBS, dried and frozen at -80±10°C until homogenization.
Tissues for histological analyses were washed in PBS and paraffin embedded soon after separation. Dehydration and Haematoxylin and Eosin (H&E) staining was performed on 5 µm thick sections followed by microscopic examination with Nikon Ni-e microscope (Nikon Instruments, Calenzano, Italy).

T4 sequence (P05177 whole entry): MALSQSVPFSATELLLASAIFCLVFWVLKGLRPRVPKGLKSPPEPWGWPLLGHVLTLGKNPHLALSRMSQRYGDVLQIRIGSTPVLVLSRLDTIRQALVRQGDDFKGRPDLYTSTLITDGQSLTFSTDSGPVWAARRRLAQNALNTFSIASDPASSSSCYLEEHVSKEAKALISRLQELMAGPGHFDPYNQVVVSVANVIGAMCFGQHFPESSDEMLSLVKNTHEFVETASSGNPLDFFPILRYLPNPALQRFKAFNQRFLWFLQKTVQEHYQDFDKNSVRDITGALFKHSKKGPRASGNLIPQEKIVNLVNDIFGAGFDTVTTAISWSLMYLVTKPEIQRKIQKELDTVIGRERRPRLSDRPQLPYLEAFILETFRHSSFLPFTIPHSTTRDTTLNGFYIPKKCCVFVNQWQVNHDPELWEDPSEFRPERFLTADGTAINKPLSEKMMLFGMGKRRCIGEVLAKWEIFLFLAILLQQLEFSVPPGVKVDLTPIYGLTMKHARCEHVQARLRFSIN
T1 sequence (Q12809 whole entry): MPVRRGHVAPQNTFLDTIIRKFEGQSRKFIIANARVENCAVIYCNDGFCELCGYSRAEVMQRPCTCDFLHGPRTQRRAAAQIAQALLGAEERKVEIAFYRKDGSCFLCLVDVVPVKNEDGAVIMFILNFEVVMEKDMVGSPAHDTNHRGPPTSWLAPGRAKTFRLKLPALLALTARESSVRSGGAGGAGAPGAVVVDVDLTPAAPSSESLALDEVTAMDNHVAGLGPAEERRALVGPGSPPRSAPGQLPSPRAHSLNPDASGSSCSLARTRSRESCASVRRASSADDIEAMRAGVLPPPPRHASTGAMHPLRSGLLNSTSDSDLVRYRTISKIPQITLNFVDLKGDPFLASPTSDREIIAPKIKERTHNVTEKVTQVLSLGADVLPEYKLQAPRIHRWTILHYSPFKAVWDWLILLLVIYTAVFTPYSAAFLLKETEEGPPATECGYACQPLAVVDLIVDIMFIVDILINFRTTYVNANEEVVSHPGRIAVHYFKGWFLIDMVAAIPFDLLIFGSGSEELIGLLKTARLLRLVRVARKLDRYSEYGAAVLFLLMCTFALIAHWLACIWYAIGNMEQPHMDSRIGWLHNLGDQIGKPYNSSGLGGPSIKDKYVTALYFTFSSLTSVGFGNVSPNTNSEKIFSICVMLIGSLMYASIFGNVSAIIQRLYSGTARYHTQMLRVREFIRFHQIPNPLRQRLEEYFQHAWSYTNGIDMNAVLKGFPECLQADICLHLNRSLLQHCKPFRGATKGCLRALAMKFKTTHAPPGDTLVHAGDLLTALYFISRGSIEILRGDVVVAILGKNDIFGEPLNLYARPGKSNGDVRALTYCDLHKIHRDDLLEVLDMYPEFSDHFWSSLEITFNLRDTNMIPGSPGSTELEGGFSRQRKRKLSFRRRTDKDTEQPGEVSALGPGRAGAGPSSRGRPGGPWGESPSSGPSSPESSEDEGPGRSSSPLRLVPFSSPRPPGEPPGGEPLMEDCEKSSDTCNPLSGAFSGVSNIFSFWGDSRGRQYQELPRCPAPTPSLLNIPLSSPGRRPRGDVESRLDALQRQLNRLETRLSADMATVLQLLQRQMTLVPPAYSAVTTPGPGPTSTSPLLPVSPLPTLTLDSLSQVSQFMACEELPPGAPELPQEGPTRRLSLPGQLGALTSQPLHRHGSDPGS
T3 sequence (P20813 whole entry): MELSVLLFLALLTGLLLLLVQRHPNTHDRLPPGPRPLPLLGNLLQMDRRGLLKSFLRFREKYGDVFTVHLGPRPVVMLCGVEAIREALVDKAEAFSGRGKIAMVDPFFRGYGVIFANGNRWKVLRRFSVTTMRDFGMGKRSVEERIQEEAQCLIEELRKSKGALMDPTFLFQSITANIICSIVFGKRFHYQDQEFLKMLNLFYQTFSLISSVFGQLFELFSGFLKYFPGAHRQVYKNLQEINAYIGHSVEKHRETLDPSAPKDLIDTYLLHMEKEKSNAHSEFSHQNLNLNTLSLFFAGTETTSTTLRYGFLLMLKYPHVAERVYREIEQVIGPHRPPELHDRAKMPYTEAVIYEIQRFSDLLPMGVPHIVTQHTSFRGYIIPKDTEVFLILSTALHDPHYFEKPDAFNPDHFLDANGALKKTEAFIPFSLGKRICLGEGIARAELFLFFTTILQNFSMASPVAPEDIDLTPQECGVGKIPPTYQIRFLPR
T2 sequence (P08684 whole entry): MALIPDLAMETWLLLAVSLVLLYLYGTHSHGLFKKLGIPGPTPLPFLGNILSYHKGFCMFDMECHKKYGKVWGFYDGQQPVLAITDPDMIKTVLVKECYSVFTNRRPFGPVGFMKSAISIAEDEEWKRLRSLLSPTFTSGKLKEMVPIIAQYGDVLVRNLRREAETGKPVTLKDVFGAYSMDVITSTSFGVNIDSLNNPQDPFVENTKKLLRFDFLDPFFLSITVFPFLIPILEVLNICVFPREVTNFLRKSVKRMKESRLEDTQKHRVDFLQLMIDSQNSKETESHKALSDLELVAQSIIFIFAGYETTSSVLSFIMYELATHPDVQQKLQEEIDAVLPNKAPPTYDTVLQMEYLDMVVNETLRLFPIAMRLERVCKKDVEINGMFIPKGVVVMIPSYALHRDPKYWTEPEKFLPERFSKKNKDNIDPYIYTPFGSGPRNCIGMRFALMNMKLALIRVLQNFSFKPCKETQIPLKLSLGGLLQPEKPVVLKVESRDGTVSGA
T5 sequence (P10635 whole entry): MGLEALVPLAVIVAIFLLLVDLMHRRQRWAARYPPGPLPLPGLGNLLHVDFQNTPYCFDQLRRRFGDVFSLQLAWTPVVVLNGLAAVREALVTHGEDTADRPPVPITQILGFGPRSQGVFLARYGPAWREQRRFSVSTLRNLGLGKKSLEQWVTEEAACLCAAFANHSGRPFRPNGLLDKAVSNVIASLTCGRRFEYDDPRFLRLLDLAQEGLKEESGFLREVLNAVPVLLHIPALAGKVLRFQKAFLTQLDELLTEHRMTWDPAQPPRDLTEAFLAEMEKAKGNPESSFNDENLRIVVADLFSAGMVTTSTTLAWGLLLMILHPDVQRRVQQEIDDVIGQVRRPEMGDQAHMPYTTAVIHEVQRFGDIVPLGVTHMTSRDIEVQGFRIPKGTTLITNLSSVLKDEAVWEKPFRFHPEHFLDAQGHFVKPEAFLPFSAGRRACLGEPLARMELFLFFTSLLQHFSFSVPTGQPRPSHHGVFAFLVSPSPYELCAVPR
T6 sequence (P11712 whole entry): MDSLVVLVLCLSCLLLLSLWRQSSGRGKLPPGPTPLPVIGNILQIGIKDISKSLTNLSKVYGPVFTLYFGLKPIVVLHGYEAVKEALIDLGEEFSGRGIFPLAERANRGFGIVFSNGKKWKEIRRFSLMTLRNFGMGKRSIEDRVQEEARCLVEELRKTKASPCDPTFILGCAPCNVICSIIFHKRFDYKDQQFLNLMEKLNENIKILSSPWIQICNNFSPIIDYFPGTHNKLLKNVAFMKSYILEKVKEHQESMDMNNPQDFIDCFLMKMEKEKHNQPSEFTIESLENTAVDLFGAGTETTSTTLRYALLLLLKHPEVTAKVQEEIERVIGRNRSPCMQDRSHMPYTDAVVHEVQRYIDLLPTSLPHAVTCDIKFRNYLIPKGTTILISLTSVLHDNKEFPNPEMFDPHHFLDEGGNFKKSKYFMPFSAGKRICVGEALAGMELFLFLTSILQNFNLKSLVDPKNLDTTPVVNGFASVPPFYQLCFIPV

Compound: CCCCc1cn(-c2ccc(-c3nnc(-c4ccccc4C(F)(F)F)o3)cc2)nn1 [Compound 5]
- effect on the conductance of the hERG channel (hERG channels): No effect on the conductance of the hERG channel
- IC50 (CYP3A4): > 30 µM
- IC50 (CYP2B6): > 30 µM
- IC50 (CYP1A2): > 30 µM
- IC50 (CYP2D6): > 30 µM
- IC50 (CYP2C9): > 30 µM
- treatment related morphological changes in brain, liver, lung, spleen and kidney ([1]; 6 weeks of repeated treatment, I.P. 45mg/Kg every 48 hours): No treatment related morphological changes
- systemic toxicities or altered behavior ([1]; I.P. 10 mg/kg single administration, mice observed for 24 hours): no toxicities
- systemic toxicities or altered behavior ([1]; I.P. 45 mg/kg double administration, mice observed for 48 hours): no toxicities
- systemic toxicities or altered behavior ([1]; I.P. 45 mg/kg every 48 hours, 6 weeks, including 1 week follow up): no toxicities
- systemic toxicities or altered behavior ([1]; I.P. 45 mg/kg single administration, mice observed for 24 hours): no toxicities
- systemic toxicities or altered behavior ([1]; I.T. 0.08 mg/kg single administration, mice observed for 24 hours): no toxicities
- systemic toxicities or altered behavior ([1]; I.V. 1 mg/kg single administration, mice observed for 24 hours): no toxicities
- systemic toxicities or altered behavior ([1]; P.O. 45 mg/kg single administration, mice observed for 24 hours): no toxicities
